PMC6271698, “Immobilization of Horseradish Peroxidase on NH2-Modified Magnetic Fe3O4/SiO2 Particles and Its Application in Removal of 2,4-Dichlorophenol” (Molecules, 2014)

Test system: T1, Horseradish peroxidase (HRP)
T1 construct: gene PRXC1A; free enzyme
Experiment: colorimetric peroxidase assay, Lineweaver-Burk plot
Assay type: biochemical
Details: free enzyme, not immobilised; co-substrate H2O2 (concentration not stated); pH and temperature not stated; read-out: Kmapp

Work on `CCN(CC)c1ccc(N)cc1` [DPD, N,N-diethyl-p-phenylenediaminesulfate] yielded a Km of 500 µM.
